Measurements taken from patent US20030055107A1, “Forms of pharmaceutically active agents and method for manufacture thereof” (priority 2001, published 2003).
One block for each molecule: values may come before it.

Legend:
[1] = cited from earlier work
[2] = Dissolution of dried new form in water (observation); assay type: physicochemical; settings: dried form with potassium cation placed in water
Description: The new ibuprofen form of the present invention dissociates into ibuprofen in its free acid form.

[3] = Dynamic Vapor Sorption Moisture Balance, relative weight gain due to moisture pickup; assay type: physicochemical; settings: for critical humidity: cycled between 0% RH to 95% RH to 0% RH over 48 hours at 25° C.
Experimental: Samples were cycled between 0% RH to 95% RH to 0% RH over 48 hours at 25° C. […] At 50% humidity, the relative weight gain due to moisture pickup was about 25% while at 70% humidity the relative weight gain was about 35%. […] At 50% humidity the relative weight gain due to moisture pickup was about 1.4% and at 70% humidity the weight gain was bout 2%.

SMILES: CC(C)Cc1ccc(C(C)C(=O)O)cc1 (racemic) [Ibuprofen, ibuprofen]
solubility in water ([1]; water): < 0.1 mg/mL

dissolution in water (in words) [2]: readily dissolves in water | dissolution in water (in words) ([2]; listed as ibuprofen form of the present invention wherein the cation is potassium): immediate dissolution | hygroscopicity compared to the potassium salt of ibuprofen ([3]; 0-95% RH cycle, 25° C.): significantly less hygroscopic | critical humidity [3]: about 30%
SMILES: CC(C)Cc1ccc(C(C)C(=O)O)cc1.CC(C)Cc1ccc(C(C)C(=O)[O-])cc1.[K+] (stereo not shown) [new ibuprofen form]
physical change of sample during humidity cycling ([3]; 0-95% RH cycle, 25° C.): No change in crystal appearance was observed

SMILES: CO[C@@H]1[C@@H](OC(N)=O)[C@@H](O)[C@H](Oc2ccc3c(O)c(NC(=O)c4ccc(O)c(CC=C(C)C)c4)c(=O)oc3c2C)OC1(C)C [novobiocin]
solubility of amorphous substance versus crystalline agent ([1]; amorphous vs crystalline, Mullins and Macek 1960): ten times higher

physical change of sample during humidity cycling ([3]; 0-95% RH cycle, 25° C.): the sample dissolved and formed a gel | critical humidity [3]: about 30%
SMILES: CC(C)Cc1ccc(C(C)C(=O)O)cc1.[K] (stereo not shown) [potassium ibuprofen]
solubility (in words) ([1]; background statement): highly soluble
